“And” between values parts separate entries of the source, which are not always exact repeats. Equal entries are not always repeated.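 All cell lines were grown in 96-well plates and treated with compound for 48 hours. Abbreviation: GI50, concentration required for 50% inhibition of growth. TGI: total growth inhibition.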
Legend:
Experiment in all cases: NCI-60 cell line screen, 48 h
[1] = system: HCT-15 colon
[2] = system: SK-MEL-2 melanoma
[3] = system: SN12C renal
[4] = system: RXF 393 renal
[5] = system: OVCAR-5 ovarian
[6] = system: SF-295 CNS
[7] = system: OVCAR-4 ovarian
[8] = system: UACC-257 melanoma
[9] = system: U251 CNS
[10] = system: A549 NSCLC

SMILES	GI50 [1]	TGI [1]	GI50 [2]	TGI [2]	GI50 [3]	TGI [3]	GI50 [4]	TGI [4]	GI50 [5]	TGI [5]	GI50 [6]	TGI [6]	GI50 [7]	TGI [7]	GI50 [8]	TGI [8]	GI50 [9]	TGI [9]	TGI [10]	GI50 [10]
c1ccc(N2N=C(c3cccc(Nc4ccncc4)c3)CC2c2ccc3c(c2)OCO3)cc1 (stereo not given)	1.49 µM	3.38 µM	2.02 µM	4.01 µM	1.71 µM	3.25 µM	1.61 µM	3.06 µM	2.06 µM	4.85 µM	1.87 µM	3.51 µM	1.53 µM	3.89 µM	2 µM	4.09 µM	1.81 µM	3.74 µM	–	–
CCOC1=NC(C(F)(F)F)(C(F)(F)F)N=C(N2CCOCC2)O1	–	> 100 µM	–	> 100 µM	–	> 100 µM	–	> 100 µM	–	> 100 µM	–	> 100 µM	–	> 100 µM	–	> 100 µM	–	> 100 µM	> 100 µM	–
COc1nc2ccc(COc3ccc(C(=O)NC(CCC(=O)O)C(=O)O)cc3)cc2nc1OC (stereo not given)	–	> 10 µM	–	> 10 µM	–	> 10 µM	–	> 10 µM	–	> 10 µM	–	> 10 µM	–	> 10 µM	–	> 10 µM	–	> 10 µM	> 10 µM	–
COc1cc([C@@H]2c3cc4c(c(O)c3C[C@H]3COC(=O)[C@@H]32)OCO4)cc(OC)c1OC	0.19 µM	–	1.02 µM	–	0.581 µM	–	0.281 µM	–	0.725 µM	150 µM and > 241 µM and > 100 µM	0.109 µM	–	2.3 µM	–	> 100 µM	–	0.183 µM	> 100 µM	–	0.274 µM
O=C1C(Cl)N(c2cccc(Cl)c2)C1c1c[nH]c2ccccc12 (stereo not given)	–	–	–	> 100 µM	–	> 100 µM	–	> 100 µM	–	–	–	> 100 µM	–	> 100 µM	–	> 100 µM	–	> 100 µM	> 100 µM	–
Nc1ccccc1Nc1ccccc1C(=O)[O-].Nc1ccccc1Nc1ccccc1C(=O)[O-].[Zn+2]	–	> 100 µM	–	43.2 µM	–	> 100 µM	–	–	–	> 100 µM	–	> 100 µM	–	–	–	> 100 µM	–	> 100 µM	> 100 µM	–
Cc1nc2c(c(=O)[nH]1)S/C(=C(/C#N)c1nc3ccccc3[nH]1)N2c1ccccc1	–	> 100 µM	–	> 100 µM	–	> 100 µM	–	> 100 µM	–	> 100 µM	–	> 100 µM	–	> 100 µM	–	> 100 µM	–	> 100 µM	> 100 µM	–
COc1ccc2c(c1O)-c1cc(O)cc3c1[C@@H](C2)N(C)CC3	–	140 µM	–	43.4 µM	–	183 µM	–	119 µM	–	63.3 µM	–	145 µM	–	125 µM	–	138 µM	–	250 µM	138 µM	–
C=C(C)C(=O)O[C@H]1CC2=C[C@@H](C[C@@]3(C)O[C@@H]3[C@H]3OC(=O)C(=C)[C@@H]31)OC2=O	0.773 µM	2.72 µM	–	8.81 µM	–	8.02 µM	–	1.16 µM	–	12.2 µM	–	11.9 µM	–	6.48 µM	–	5.63 µM	–	14.6 µM	27.1 µM	–
C(/C=C/c1ccccc1)=Nc1ccc2c(c1)Cc1ccccc1-2	–	> 100 µM	–	> 100 µM	–	> 100 µM	–	> 100 µM	–	> 100 µM	–	> 100 µM	–	> 100 µM	–	–	–	44.4 µM	> 100 µM	–
COc1cc(C2S/C(=C/c3ccccc3)C(=O)N2c2ccc(NC(C)=O)cc2)cc(OC)c1OC (stereo not given)	–	46.7 µM	–	20.3 µM	–	60.3 µM	–	63 µM	–	96.2 µM	–	> 100 µM	–	> 100 µM	–	> 100 µM	–	38.5 µM	> 100 µM	–
NC(CSCc1ccc(I)cc1)C(=O)O (stereo not given)	–	> 100 µM	–	> 100 µM	–	> 100 µM	–	> 100 µM	–	> 100 µM	–	> 100 µM	–	> 100 µM	–	> 100 µM	–	> 100 µM	> 100 µM	–
CC[C@@H]1ON(C)[C@H]2CN(C)C(=O)[C@@H]12	–	> 100 µM	–	> 100 µM	–	> 100 µM	–	–	–	> 100 µM	–	> 100 µM	–	> 100 µM	–	> 100 µM	–	> 100 µM	> 100 µM	–
CC(=O)N1N=C(c2ccc3ccccc3c2O)CC1c1cccs1 (stereo not given)	–	> 100 µM	–	74.3 µM	–	> 100 µM	–	99.3 µM	–	> 100 µM	–	> 100 µM	–	> 100 µM	–	> 100 µM	–	> 100 µM	94.9 µM	–
